Earlier results on nine molecules are cited in patent US10570353B2, “Cleaning compositions” (Ascent IP Holdings, LLC, priority 2009, dated 2020).

For data set [1] the following is noted: identified from data sources.
For data set [2] the following is noted: published toxicity data.
For data set [3] the following is noted: trace constituents of Trilon M Liquid.
The conditions of data set [4]: supplier's nominal lipase activity.

As to `Cn1sccc1=O` [2-Methyl-4-isothiazolin-3-one], the skin sensitizer listing entry in data set [1] was “skin sensitizers”.

On to `OO` [hydrogen peroxide], for which, in data set [2], the mutagenicity entry is listed as “potential risk for mutagenicity”. The skin sensitizer listing entry in data set [1] is given as “skin sensitizers”.

As to cocamidopropyl betaine, the skin sensitizer listing result in data set [1] is “skin sensitizers”.

For `C=O` [formaldehyde], in data set [3], the carcinogenicity listing result is given as “suspected carcinogens”.

With `Cn1sc(Cl)cc1=O` [5-Chloro-2-Methyl-4-isothiazolin-3-one], the skin sensitizer listing entry in data set [1] is recorded as “skin sensitizers”.

With `[Na+].[OH-]` [sodium hydroxide], the skin sensitizer listing entry in data set [1] was “skin sensitizers”.

Take `O=C([O-])CN(CC(=O)[O-])CC(=O)[O-].[Na+].[Na+].[Na+]` [trisodium nitrilotriacetate]: in data set [3], the carcinogenicity listing entry is on record as “suspected carcinogens”.

B1: LIPOLASE® 100L: lipase derived from Thermomyces lanuginosus, from Novo-Nordisk A/S, liquid solution (protein, UniProt O59952 23-291, looked up)
Lipase: EVSQDLFNQFNLFAQYSAAAYCGKNNDAPAGTNITCTGNACPEVEKADATFLYSFEDSGVGDVTGFLALDNTNKLIVLSFRGSRSIENWIGNLNFDLKEINDICSGCRGHDGFTSSWRSVADTLRQKVEDAVREHPDYRVVFTGHSLGGALATVAGADLRGNGYDIDVFSYGAPRVGNRAFAEFLTVQTGGTLYRITHTNDIVPRLPPREFGYSHSSPEYWIKSGTLVPVTRNDIVKIEGIDATGGNNQPNIPDIPAHLWYFGLIGTCL
modifications: liquid commercial formulation
notes: lipase derived from Thermomyces lanuginosus, from Novo-Nordisk A/S, liquid solution
For B1, the nominal activity in data set [4] is given as 100 kLU/g.

B2: LIPOLASE® 100T: lipase derived from Thermomyces lanuginosus, from Novo-Nordisk A/S, granular solid (protein, UniProt O59952 23-291, looked up)
Lipase: EVSQDLFNQFNLFAQYSAAAYCGKNNDAPAGTNITCTGNACPEVEKADATFLYSFEDSGVGDVTGFLALDNTNKLIVLSFRGSRSIENWIGNLNFDLKEINDICSGCRGHDGFTSSWRSVADTLRQKVEDAVREHPDYRVVFTGHSLGGALATVAGADLRGNGYDIDVFSYGAPRVGNRAFAEFLTVQTGGTLYRITHTNDIVPRLPPREFGYSHSSPEYWIKSGTLVPVTRNDIVKIEGIDATGGNNQPNIPDIPAHLWYFGLIGTCL
modifications: granular commercial formulation
notes: lipase derived from Thermomyces lanuginosus, from Novo-Nordisk A/S, granular solid
Turning to B2, in data set [4], the nominal activity was 100 kLU/g.
